Measured values: the supplement of paper PMC10307832

Assays:
Assay in all cases: relative viability (nuclei count vs DMSO), 5 days (fraction); higher = more cells survive
[1] = compound: C=CCn1c(=O)c2cnc(Nc3ccc(N4CCN(C)CC4)cc3)nc2n1-c1cccc(C(C)(C)O)n1 [Adavosertib] + CC1(C)CCC(c2ccc(Cl)cc2)=C(CN2CCN(c3ccc(C(=O)NS(=O)(=O)c4ccc(N[C@H](CCN5CCOCC5)CSc5ccccc5)c(S(=O)(=O)C(F)(F)F)c4)cc3)CC2)C1 [Navitoclax] (partner 0.5 µM)
In short: (§1)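 Five library-drug doses in √10 steps were combined with a fixed anchor-drug dose, or a single drug was given alone, by pin tool to lung cancer cell lines in 1536-well plates the day after seeding. Nuclei were stained and counted after 5 days. Relative viability is the nuclei count in treated wells over that in vehicle wells, taken as the median of duplicate plates.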

[2] = compound: C=CCn1c(=O)c2cnc(Nc3ccc(N4CCN(C)CC4)cc3)nc2n1-c1cccc(C(C)(C)O)n1 [Adavosertib] + CS(=O)(=O)CCNCc1ccc(-c2ccc3ncnc(Nc4ccc(OCc5cccc(F)c5)c(Cl)c4)c3c2)o1 [Lapatinib] (partner 2 µM)
In short: as §1

[3] = compound: COc1nc(N)nc2c1ncn2[C@@H]1O[C@H](CO)[C@@H](O)[C@@H]1O [Nelarabine] + CCNC(=O)c1noc(-c2cc(C(C)C)c(O)cc2O)c1-c1ccc(CN2CCOCC2)cc1 [Luminespib] (partner 0.01 µM)
In short: as §1

[4] = compound: COc1nc(N)nc2c1ncn2[C@@H]1O[C@H](CO)[C@@H](O)[C@@H]1O [Nelarabine] + Cc1nc(Nc2ncc(C(=O)Nc3c(C)cccc3Cl)s2)cc(N2CCN(CCO)CC2)n1 [Dasatinib] (partner 0.075 µM)
In short: as §1

Row | Cell Line | relative viability ([1]; first compound 0.01 µM) | relative viability ([1]; first compound 0.03162 µM) | relative viability ([1]; first compound 0.1 µM) | relative viability ([1]; first compound 0.3162 µM) | relative viability ([2]; first compound 0.01 µM) | relative viability ([2]; first compound 0.03162 µM) | relative viability ([2]; first compound 0.1 µM) | relative viability ([2]; first compound 0.3162 µM) | relative viability ([3]; first compound 0.01 µM) | relative viability ([3]; first compound 0.03162 µM) | relative viability ([3]; first compound 0.1 µM) | relative viability ([3]; first compound 0.3162 µM) | relative viability ([3]; first compound 1 µM) | relative viability ([4]; first compound 0.01 µM) | relative viability ([4]; first compound 0.03162 µM) | relative viability ([4]; first compound 0.1 µM) | relative viability ([4]; first compound 0.3162 µM) | relative viability ([4]; first compound 1 µM)
1 | NCI-H2009 | 1.14 | 1.18 | 1.21 | 1.23 | 0.975 | 0.99 | 1.05 | 0.926 | 1.16 | 1.05 | 1.02 | 1.07 | 1.05 | 0.348 | 0.288 | 0.2 | 0.307 | 0.315
2 | BEN | 0.0632 | 0.0724 | 0.0727 | 0.0601 | 0.751 | 0.728 | 0.801 | 0.948 | 0.323 | 0.131 | 0.371 | 0.488 | 0.331 | 0.296 | 0.308 | 0.353 | 0.386 | 0.298
3 | RERF-LC-KJ | 1.01 | 0.751 | 0.828 | 0.952 | 0.915 | 0.826 | 0.89 | 0.825 | 1.41 | 1.31 | 1.34 | 1.27 | 1.31 | 0.824 | 0.884 | 0.716 | 0.808 | 0.761
4 | LU99A | 0.895 | 0.733 | 0.901 | 0.652 | 1.02 | 0.96 | 0.956 | 0.639 | 0.239 | 0.235 | 0.339 | 0.282 | 0.279 | 0.522 | 0.506 | 0.36 | 0.51 | 0.797
5 | PC-14 | 1.06 | 0.963 | 1.02 | 0.528 | 0.344 | 0.319 | 0.297 | 0.407 | 0.145 | 0.177 | 0.118 | 0.178 | 0.151 | 0.253 | 0.233 | 0.131 | 0.304 | 0.315
6 | NCI-H1651 | 0.993 | 1.13 | 1.17 | 0.748 | 0.956 | 0.715 | 0.752 | 0.682 | 1.01 | 0.953 | 0.822 | 0.985 | 0.856 | 0.4 | 0.372 | 0.387 | 0.355 | 0.368
7 | NCI-H2023 | 1.03 | 0.959 | 0.912 | 0.6 | 0.787 | 0.735 | 0.599 | 0.344 | 1.07 | 0.596 | 0.905 | 0.834 | 0.7 | 0.825 | 0.59 | 0.382 | 0.62 | 0.66
8 | NCI-H2087 | 1.09 | 1.14 | 1.09 | 0.937 | 0.951 | 1.21 | 1.15 | 1.3 | 0.193 | 0.125 | 0.155 | 0.18 | 0.196 | 1.14 | 0.718 | 0.526 | 0.981 | 1.09
